# Experimental data: ChEMBL document CHEMBL4507289, “Data for DCP probe GSM1” (2021)
# Key:
# [1] = target: AP2-associated protein kinase 1 (Homo sapiens) (UniProt Q2M2I8); conditions: Compound concentration 1000.0 nM
# [2] = test system: Tyrosine-protein kinase ABL1 (Homo sapiens), P00519 [E255K]; conditions: Compound concentration 1000.0 nM
# [3] = test system: Tyrosine-protein kinase ABL1 (Homo sapiens), P00519 [T315I]; conditions: Compound concentration 1000.0 nM
# [4] = target: Activin receptor type-1 (Homo sapiens) (UniProt Q04771); conditions: Compound concentration 1000.0 nM
# [5] = target: Activin receptor type-1-like (Homo sapiens) (UniProt P37023); conditions: Compound concentration 1000.0 nM
# [6] = target: 5'-AMP-activated protein kinase catalytic subunit alpha-1 (Homo sapiens) (UniProt Q13131); conditions: Compound concentration 1000.0 nM
# [7] = target: Calcium/calmodulin-dependent protein kinase kinase 2 (Homo sapiens) (UniProt Q96RR4); conditions: Compound concentration 1000.0 nM
# [8] = target: Cyclin-dependent kinase 19 (Homo sapiens) (UniProt Q9BWU1); conditions: Compound concentration 1000.0 nM
# [9] = target: Cyclin-dependent kinase 5 (Homo sapiens) (UniProt Q00535); conditions: Compound concentration 1000.0 nM
# [10] = target: Serine/threonine-protein kinase Chk1 (Homo sapiens) (UniProt O14757); conditions: Compound concentration 1000.0 nM
# [11] = target: Macrophage colony-stimulating factor 1 receptor (Homo sapiens) (UniProt P07333); conditions: Compound concentration 1000.0 nM
# [12] = target: Megakaryocyte-associated tyrosine-protein kinase (Homo sapiens) (UniProt P42679); conditions: Compound concentration 1000.0 nM
# [13] = test system: Epidermal growth factor receptor (Homo sapiens), P00533 [UNDEFINED MUTATION]; conditions: Compound concentration 1000.0 nM
# [14] = test system: Epidermal growth factor receptor (Homo sapiens), P00533 [L858R,T790M]; conditions: Compound concentration 1000.0 nM
# [15] = target: Ephrin type-A receptor 3 (Homo sapiens) (UniProt P29320); conditions: Compound concentration 1000.0 nM
# [16] = target: Ephrin type-A receptor 4 (Homo sapiens) (UniProt P54764); conditions: Compound concentration 1000.0 nM
# [17] = target: Receptor tyrosine-protein kinase erbB-2 (Homo sapiens) (UniProt P04626); conditions: Compound concentration 1000.0 nM
# [18] = target: Receptor tyrosine-protein kinase erbB-3 (Homo sapiens) (UniProt P21860); conditions: Compound concentration 1000.0 nM
# [19] = target: Mitogen-activated protein kinase 15 (Homo sapiens) (UniProt Q8TD08); conditions: Compound concentration 1000.0 nM
# [20] = target: Serine/threonine-protein kinase/endoribonuclease IRE1 (Homo sapiens) (UniProt O75460); conditions: Compound concentration 1000.0 nM
# [21] = target: Homeodomain-interacting protein kinase 4 (Homo sapiens) (UniProt Q8NE63); conditions: Compound concentration 1000.0 nM
# [22] = target: Tyrosine-protein kinase ITK/TSK (Homo sapiens) (UniProt Q08881); conditions: Compound concentration 1000.0 nM
# [23] = test system: Mast/stem cell growth factor receptor Kit (Homo sapiens), P10721 [V559D]; conditions: Compound concentration 1000.0 nM
# [24] = target: Mitogen-activated protein kinase kinase kinase 15 (Homo sapiens) (UniProt Q6ZN16); conditions: Compound concentration 1000.0 nM
# [25] = target: Microtubule-associated serine/threonine-protein kinase 1 (Homo sapiens) (UniProt Q9Y2H9); conditions: Compound concentration 1000.0 nM
# [26] = target: Dual specificity mitogen-activated protein kinase kinase 3 (Homo sapiens) (UniProt P46734); conditions: Compound concentration 1000.0 nM
# [27] = target: Dual specificity mitogen-activated protein kinase kinase 7 (Homo sapiens) (UniProt O14733); conditions: Compound concentration 1000.0 nM
# [28] = target: MAP kinase-interacting serine/threonine-protein kinase 1 (Homo sapiens) (UniProt Q9BUB5); conditions: Compound concentration 1000.0 nM
# [29] = target: Serine/threonine-protein kinase 24 (Homo sapiens) (UniProt Q9Y6E0); conditions: Compound concentration 1000.0 nM
# [30] = target: Muscle, skeletal receptor tyrosine-protein kinase (Homo sapiens) (UniProt O15146); conditions: Compound concentration 1000.0 nM
# [31] = target: Serine/threonine-protein kinase Nek5 (Homo sapiens) (UniProt Q6P3R8); conditions: Compound concentration 1000.0 nM
# [32] = target: Cyclin-dependent kinase 17 (Homo sapiens) (UniProt Q00537); conditions: Compound concentration 1000.0 nM
# [33] = target: Phosphatidylinositol 4,5-bisphosphate 3-kinase catalytic subunit gamma isoform (Homo sapiens) (UniProt P48736); conditions: Compound concentration 1000.0 nM
# [34] = target: Serine/threonine-protein kinase PLK3 (Homo sapiens) (UniProt Q9H4B4); conditions: Compound concentration 1000.0 nM
# [35] = target: Serine/threonine-protein kinase PRP4 homolog (Homo sapiens) (UniProt Q13523); conditions: Compound concentration 1000.0 nM
# [36] = target: Ribosomal protein S6 kinase alpha-4 (Homo sapiens) (UniProt O75676); conditions: Compound concentration 1000.0 nM
# [37] = target: SRSF protein kinase 1 (Homo sapiens) (UniProt Q96SB4); conditions: Compound concentration 1000.0 nM
# [38] = target: Serine/threonine-protein kinase 33 (Homo sapiens) (UniProt Q9BYT3); conditions: Compound concentration 1000.0 nM
# [39] = target: Angiopoietin-1 receptor (Homo sapiens) (UniProt Q02763); conditions: Compound concentration 1000.0 nM
# [40] = target: TRAF2 and NCK-interacting protein kinase (Homo sapiens) (UniProt Q9UKE5); conditions: Compound concentration 1000.0 nM
# [41] = target: Serine/threonine-protein kinase WNK3 (Homo sapiens) (UniProt Q9BYP7); conditions: Compound concentration 1000.0 nM
# [42] = target: Tyrosine-protein kinase ZAP-70 (Homo sapiens) (UniProt P43403); conditions: Compound concentration 1000.0 nM
# [43] = target: D(4) dopamine receptor (Homo sapiens) (UniProt P21917); conditions: Compound concentration 10.0 uM
# [44] = target: Delta-type opioid receptor (Homo sapiens) (UniProt P41143); conditions: Compound concentration 10.0 uM
# Histamine H2 receptor = Histamine H2 receptor (Homo sapiens, UniProt P25021); conditions: Compound concentration 10.0 uM
# Histamine H2 receptor, sequence (P25021 whole entry): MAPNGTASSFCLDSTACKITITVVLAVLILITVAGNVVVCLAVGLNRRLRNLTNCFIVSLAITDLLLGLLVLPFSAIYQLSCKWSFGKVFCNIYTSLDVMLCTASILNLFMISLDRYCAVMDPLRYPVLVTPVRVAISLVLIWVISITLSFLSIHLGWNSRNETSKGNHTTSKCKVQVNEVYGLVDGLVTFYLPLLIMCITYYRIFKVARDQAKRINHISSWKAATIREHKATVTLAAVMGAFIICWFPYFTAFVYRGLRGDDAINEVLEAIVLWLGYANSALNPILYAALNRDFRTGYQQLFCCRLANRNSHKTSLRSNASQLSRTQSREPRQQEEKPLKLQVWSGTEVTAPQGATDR
# Cyclin-dependent kinase 17 (Homo sapiens), sequence (Q00537 whole entry, looked up, canonical isoform): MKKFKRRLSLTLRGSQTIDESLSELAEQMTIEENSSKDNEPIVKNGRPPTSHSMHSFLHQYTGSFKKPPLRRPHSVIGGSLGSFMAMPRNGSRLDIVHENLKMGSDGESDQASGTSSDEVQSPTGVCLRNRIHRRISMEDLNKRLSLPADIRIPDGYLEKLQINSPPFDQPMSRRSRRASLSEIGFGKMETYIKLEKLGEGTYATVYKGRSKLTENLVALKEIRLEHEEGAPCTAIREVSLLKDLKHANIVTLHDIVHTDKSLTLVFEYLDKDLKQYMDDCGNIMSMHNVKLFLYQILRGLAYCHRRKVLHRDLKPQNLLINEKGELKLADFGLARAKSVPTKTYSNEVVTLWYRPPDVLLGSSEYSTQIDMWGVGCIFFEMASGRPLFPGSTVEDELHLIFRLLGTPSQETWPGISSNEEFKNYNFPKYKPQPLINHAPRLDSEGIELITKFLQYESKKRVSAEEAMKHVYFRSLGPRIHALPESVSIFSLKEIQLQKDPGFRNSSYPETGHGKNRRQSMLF
# Dual specificity mitogen-activated protein kinase kinase 7 (Homo sapiens), sequence (O14733 whole entry): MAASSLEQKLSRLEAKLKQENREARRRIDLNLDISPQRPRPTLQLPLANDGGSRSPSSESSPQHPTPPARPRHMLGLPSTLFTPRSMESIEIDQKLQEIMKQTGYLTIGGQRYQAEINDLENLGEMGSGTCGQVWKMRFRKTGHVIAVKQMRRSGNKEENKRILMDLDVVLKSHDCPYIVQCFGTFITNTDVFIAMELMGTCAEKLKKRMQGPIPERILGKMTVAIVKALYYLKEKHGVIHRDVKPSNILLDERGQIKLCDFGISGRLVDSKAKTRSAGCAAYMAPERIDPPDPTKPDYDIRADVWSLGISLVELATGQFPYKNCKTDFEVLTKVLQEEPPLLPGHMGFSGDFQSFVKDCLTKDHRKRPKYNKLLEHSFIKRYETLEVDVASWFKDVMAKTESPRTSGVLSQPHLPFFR
# Serine/threonine-protein kinase 33 (Homo sapiens), sequence (Q9BYT3 whole entry, looked up): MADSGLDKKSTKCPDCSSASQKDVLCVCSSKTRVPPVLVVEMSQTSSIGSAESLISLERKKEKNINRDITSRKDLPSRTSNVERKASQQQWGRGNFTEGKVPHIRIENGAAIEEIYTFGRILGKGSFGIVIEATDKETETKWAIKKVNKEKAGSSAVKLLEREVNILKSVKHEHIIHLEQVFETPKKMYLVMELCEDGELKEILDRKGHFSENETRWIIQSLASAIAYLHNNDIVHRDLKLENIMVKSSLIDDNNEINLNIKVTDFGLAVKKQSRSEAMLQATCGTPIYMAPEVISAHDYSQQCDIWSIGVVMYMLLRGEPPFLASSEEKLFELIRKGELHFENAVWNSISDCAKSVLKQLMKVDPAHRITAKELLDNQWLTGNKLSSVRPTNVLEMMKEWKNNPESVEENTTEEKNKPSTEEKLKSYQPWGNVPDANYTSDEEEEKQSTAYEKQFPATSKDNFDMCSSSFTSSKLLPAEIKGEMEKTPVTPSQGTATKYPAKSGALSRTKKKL
# Receptor tyrosine-protein kinase erbB-3 (Homo sapiens), sequence (P21860 whole entry): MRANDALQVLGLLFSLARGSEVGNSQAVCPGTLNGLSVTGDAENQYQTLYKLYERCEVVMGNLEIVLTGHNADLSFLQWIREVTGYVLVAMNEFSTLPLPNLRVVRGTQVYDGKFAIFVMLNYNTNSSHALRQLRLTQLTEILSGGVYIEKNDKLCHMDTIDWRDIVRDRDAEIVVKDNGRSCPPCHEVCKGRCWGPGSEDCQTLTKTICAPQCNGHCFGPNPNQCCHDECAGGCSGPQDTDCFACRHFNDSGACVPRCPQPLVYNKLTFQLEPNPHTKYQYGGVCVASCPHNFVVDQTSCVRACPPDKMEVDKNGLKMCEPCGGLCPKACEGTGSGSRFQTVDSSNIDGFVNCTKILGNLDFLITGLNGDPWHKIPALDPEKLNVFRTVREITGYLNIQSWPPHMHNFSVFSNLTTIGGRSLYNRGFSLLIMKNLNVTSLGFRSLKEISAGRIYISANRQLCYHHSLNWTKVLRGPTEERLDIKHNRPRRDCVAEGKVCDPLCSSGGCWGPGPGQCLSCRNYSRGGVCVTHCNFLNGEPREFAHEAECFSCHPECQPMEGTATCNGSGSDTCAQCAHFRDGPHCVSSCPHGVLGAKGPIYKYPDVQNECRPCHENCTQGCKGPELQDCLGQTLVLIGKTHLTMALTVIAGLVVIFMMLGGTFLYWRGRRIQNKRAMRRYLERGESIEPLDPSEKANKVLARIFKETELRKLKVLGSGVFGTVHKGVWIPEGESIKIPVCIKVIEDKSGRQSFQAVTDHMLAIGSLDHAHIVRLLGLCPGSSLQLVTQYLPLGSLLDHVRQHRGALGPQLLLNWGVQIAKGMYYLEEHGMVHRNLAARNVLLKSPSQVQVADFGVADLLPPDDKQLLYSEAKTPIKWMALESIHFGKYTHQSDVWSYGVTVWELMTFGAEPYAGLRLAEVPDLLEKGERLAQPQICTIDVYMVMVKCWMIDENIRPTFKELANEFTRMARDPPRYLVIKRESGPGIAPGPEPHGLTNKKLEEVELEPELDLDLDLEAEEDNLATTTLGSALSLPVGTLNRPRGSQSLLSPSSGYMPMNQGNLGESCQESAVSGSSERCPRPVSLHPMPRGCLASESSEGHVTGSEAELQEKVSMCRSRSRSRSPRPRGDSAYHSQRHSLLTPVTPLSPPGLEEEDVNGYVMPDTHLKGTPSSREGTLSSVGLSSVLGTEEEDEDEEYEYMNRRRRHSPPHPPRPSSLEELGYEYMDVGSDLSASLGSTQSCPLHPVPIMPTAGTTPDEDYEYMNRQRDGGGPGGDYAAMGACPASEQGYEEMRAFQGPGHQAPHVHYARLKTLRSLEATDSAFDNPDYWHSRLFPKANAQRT
# Mast/stem cell growth factor receptor Kit (Homo sapiens), P10721 [V559D], sequence (P10721 whole entry V559D): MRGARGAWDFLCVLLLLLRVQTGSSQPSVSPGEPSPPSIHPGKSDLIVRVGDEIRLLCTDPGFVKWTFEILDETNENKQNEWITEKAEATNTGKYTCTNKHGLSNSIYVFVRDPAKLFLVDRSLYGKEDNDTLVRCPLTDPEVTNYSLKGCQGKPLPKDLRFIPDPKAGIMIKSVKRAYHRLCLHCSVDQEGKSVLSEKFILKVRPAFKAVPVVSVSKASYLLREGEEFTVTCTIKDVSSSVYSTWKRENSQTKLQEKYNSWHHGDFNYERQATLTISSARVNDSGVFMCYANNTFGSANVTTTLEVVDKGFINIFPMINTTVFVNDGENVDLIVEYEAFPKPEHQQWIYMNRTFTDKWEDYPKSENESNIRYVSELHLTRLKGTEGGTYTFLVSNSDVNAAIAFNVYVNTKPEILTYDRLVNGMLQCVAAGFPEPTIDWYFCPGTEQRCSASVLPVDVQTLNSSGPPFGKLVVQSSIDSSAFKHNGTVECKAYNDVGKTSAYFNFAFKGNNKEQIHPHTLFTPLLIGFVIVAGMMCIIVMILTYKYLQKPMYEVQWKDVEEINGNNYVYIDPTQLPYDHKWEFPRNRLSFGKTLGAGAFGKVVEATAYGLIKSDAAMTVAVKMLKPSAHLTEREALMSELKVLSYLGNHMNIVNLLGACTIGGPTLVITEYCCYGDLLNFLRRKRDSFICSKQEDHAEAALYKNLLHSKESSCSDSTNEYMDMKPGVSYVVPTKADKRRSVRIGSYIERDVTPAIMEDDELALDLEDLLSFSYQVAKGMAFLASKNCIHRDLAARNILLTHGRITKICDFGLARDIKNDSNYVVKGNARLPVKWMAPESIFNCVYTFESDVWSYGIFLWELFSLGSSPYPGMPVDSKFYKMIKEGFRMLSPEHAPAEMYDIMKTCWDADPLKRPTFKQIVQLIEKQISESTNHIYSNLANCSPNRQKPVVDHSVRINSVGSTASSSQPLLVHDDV
# 5'-AMP-activated protein kinase catalytic subunit alpha-1 (Homo sapiens), sequence (Q13131 whole entry, looked up): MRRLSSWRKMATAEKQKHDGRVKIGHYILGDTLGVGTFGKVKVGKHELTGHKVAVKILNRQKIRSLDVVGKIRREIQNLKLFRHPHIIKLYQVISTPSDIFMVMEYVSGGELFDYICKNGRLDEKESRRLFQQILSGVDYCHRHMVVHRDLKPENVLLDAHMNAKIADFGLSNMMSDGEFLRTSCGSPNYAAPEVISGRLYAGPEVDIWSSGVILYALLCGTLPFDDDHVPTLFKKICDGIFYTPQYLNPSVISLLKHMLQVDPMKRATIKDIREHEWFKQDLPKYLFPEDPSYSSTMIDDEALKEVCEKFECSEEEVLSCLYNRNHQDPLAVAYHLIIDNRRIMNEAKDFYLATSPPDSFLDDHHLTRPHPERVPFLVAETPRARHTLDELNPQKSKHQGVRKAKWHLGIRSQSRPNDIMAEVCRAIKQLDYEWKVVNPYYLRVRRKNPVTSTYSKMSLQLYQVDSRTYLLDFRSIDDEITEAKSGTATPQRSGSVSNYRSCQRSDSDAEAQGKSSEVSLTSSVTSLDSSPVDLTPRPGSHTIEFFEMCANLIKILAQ
# Dual specificity mitogen-activated protein kinase kinase 3 (Homo sapiens), sequence (P46734 whole entry): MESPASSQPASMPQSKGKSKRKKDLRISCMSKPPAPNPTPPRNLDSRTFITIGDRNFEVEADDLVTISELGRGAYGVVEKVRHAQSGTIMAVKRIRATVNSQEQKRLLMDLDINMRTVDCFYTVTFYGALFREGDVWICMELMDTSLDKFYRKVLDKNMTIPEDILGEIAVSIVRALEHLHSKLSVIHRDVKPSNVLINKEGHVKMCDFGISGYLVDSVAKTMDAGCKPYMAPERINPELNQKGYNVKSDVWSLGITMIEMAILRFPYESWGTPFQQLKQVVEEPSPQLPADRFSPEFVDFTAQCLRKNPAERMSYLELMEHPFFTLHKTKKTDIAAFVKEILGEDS
structure (smiles),measurement,setting,value
COc1cc(-c2cn([C@H]3CCc4c(F)cccc4N(CC(F)(F)F)C3=O)nn2)ccc1-n1cnc(C)c1,residual activity,[1],100%
same,residual activity,[2],100%
same,residual activity,[3],83%
same,residual activity,[4],100%
same,residual activity,[5],100%
same,residual activity,[6],100%
same,residual activity,[7],100%
same,residual activity,[8],97%
same,residual activity,[9],100%
same,residual activity,[10],100%
same,residual activity,[11],86%
same,residual activity,[12],100%
same,residual activity,[13],0%
same,residual activity,[14],82%
same,residual activity,[15],97%
same,residual activity,[16],100%
same,residual activity,[17],100%
same,residual activity,[18],98%
same,residual activity,[19],78%
same,residual activity,[20],100%
same,residual activity,[21],100%
same,residual activity,[22],100%
same,residual activity,[23],100%
same,residual activity,[24],100%
same,residual activity,[25],100%
same,residual activity,[26],100%
same,residual activity,[27],100%
same,residual activity,[28],87%
same,residual activity,[29],100%
same,residual activity,[30],100%
same,residual activity,[31],90%
same,residual activity,[32],84%
same,residual activity,[33],84%
same,residual activity,[34],100%
same,residual activity,[35],100%
same,residual activity,[36],100%
same,residual activity,[37],100%
same,residual activity,[38],100%
same,residual activity,[39],100%
same,residual activity,[40],94%
same,residual activity,[41],100%
same,residual activity,[42],100%
same,inhibition,[43],-7.76%
same,inhibition,[44],18.2%
same,inhibition,Histamine H2 receptor,51.8%
COc1cc(-c2cn([C@H]3CCc4ccccc4N(CC(F)(F)F)C3=O)nn2)ccc1-n1ccc(C)n1,residual activity,[1],100%
same,residual activity,[2],96%
same,residual activity,[3],70%
same,residual activity,[4],100%
same,residual activity,[5],100%
same,residual activity,[6],100%
same,residual activity,[7],100%
same,residual activity,[8],72%
same,residual activity,[9],100%
same,residual activity,[10],100%
same,residual activity,[11],92%
same,residual activity,[12],80%
same,residual activity,[13],100%
same,residual activity,[14],65%
same,residual activity,[15],95%
same,residual activity,[16],92%
same,residual activity,[17],100%
same,residual activity,[18],77%
same,residual activity,[19],100%
same,residual activity,[20],86%
same,residual activity,[21],100%
same,residual activity,[22],100%
same,residual activity,[23],96%
same,residual activity,[24],84%
same,residual activity,[25],100%
same,residual activity,[26],89%
same,residual activity,[27],100%
same,residual activity,[28],78%
same,residual activity,[29],97%
same,residual activity,[30],99%
same,residual activity,[31],100%
same,residual activity,[32],100%
same,residual activity,[33],67%
same,residual activity,[34],96%
same,residual activity,[35],93%
same,residual activity,[36],78%
same,residual activity,[37],100%
same,residual activity,[38],100%
same,residual activity,[39],81%
same,residual activity,[40],81%
same,residual activity,[41],100%
same,residual activity,[42],82%
same,inhibition,[43],52.4%
same,inhibition,[44],16.7%
same,inhibition,Histamine H2 receptor,4.13%
